From patent US5834259A, “Process and composition for preparing D-aspartic acid” (Monsanto Company, priority 1996, dated 1998)

Legend:
Type in all cases: biochemical, E. coli K12
[1] = target: T1, L-aspartate-α-decarboxylase (Escherichia coli, UniProt P0A790); test: Temperature study, 50° C. (Example 9); conditions: for concentration in supernatant fluid / percent remaining: 1.0M, 100 g/l cells
T1 construct: expressed in transfected cells; host or cells: E. coli W3110 transformed with pIF309 = strain NS3291 (ATCC 98675), whole cells
Method: (§1) 133.1 g (1 mol) of D/L-aspartic acid was dissolved in deionized H2 O and the pH was adjusted to 7.0 with 10N NaOH, approximately 100 ml. Cells, freshly thawed from -80° C., were added to achieve a final concentration of 100 g/l. Three 2 L fermentors were each charged with 963 ml of substrate solution and 137 ml of cells and then heated to 37° C. and 45° C. while mixing at 300 rpm or heated to 50° C. while mixing at 450 rpm. Samples, approximately 1 ml, were removed over time and pH adjusted to 7.0 with either NaOH or HCl. After centrifugation to remove cells, the supernatant fluid was analyzed for both D- and L-aspartic acid.

[2] = target: T1, L-aspartate-α-decarboxylase; test: Temperature study, 37° C. (Example 9); conditions: for concentration in supernatant fluid / percent remaining: 1.0M, 100 g/l cells
Method: as §1

[3] = target: T1, L-aspartate-α-decarboxylase; test: 1.0M D/L-aspartate, 50 g/l cells, reaction B (Example 6); conditions: 37° C.
Method: 1.0M D/L-aspartate was tested as a substrate for two enzyme cell loads, 100 g/l cells, referred to here as reaction "A", and 50 g/l cells, referred to here as reaction "B".
133.1 g of D/L-aspartic acid was dissolved in approximately 600 ml deionized H2 O and pH was adjusted to 7.0 with NaOH, using 100 ml of 10N NaOH and a small amount of 1.0N NaOH. The substrate for reaction A was brought to 963 ml with deionized H2 O. The reaction was started with 137 ml cells that were stored in the cold room. For reaction B, the substrate was brought to a volume of 981.5 ml. The reaction was started with […] cells.
Both reactions were carried out in 2 L fermentors at pH 7.0 without constant adjustments and at 37° C. Samples were removed over time, centrifuged and the supernatant fluid was diluted and submitted for D- and L-aspartic acid HPLC analysis.

[4] = target: T1, L-aspartate-α-decarboxylase; test: Activity towards D/L-glutamate and D/L-alanine, D/L-aspartate as control (Example 8); conditions: racemate substrate, pH 7.0
Method: D/L-aspartate was run as a control.
Substrates were prepared by dissolving solid amino acid racemate in approximately 75 ml deionized H2 O and adjusting the pH to 7.0 with 10N NaOH. The volume was then brought to 100 ml with deionized H2 O. The cells used were stored frozen for about 1 month and then thawed and stored in a refrigerator for about 1 month prior to running the experiments.
The reaction was run the same as described in the prior Examples. Samples of supernatant fluid, approximately 0.20 ml, were removed over time, centrifuged and stored frozen before analysis by HPLC as described in the prior Examples.

In the case of `N[C@H](CC(=O)O)C(=O)O` [D-Asp, D-aspartic acid], the “stability of the isomer” value [1] is reported as “stable”, the “concentration in supernatant fluid” value ([1]; 0.000 hr) is reported as 54.89 mg/mL and the “concentration in supernatant fluid” value ([1]; 1.000 hr) is reported as 54.30 mg/mL. For the same compound, the percent remaining ([1]; 1.000 hr) was 52.78%, the “concentration in supernatant fluid” value ([1]; 3.000 hr) was 58.01 mg/mL and the percent remaining ([1]; 3.000 hr) was 40.61%. The “concentration in supernatant fluid” value ([1]; 5.0000 hr) was 58.16 mg/mL, the percent remaining ([1]; 5.0000 hr) was 36.97% and the “concentration in supernatant fluid” value ([1]; 7.000 hr) was 58.51 mg/mL. For the same compound, the percent remaining ([1]; 7.000 hr) was 35.69%, the “concentration in supernatant fluid” value ([1]; 9.000 hr) was 58.88 mg/mL and the percent remaining ([1]; 9.000 hr) was 33.99%. For the same compound, the “concentration in supernatant fluid” value ([1]; 13.50 hr) was 59.62 mg/mL, the percent remaining ([1]; 13.50 hr) was 34.19% and the “concentration in supernatant fluid” value ([1]; 23.00 hr) was 56.71 mg/mL. For the same compound, the percent remaining ([1]; 23.00 hr) was 31.98%, the “concentration in supernatant fluid” value ([1]; 25.00 hr) was 59.85 mg/mL and the percent remaining ([1]; 25.00 hr) was 31.86%. The “concentration in supernatant fluid” value ([1]; 27.00 hr) was 56.87 mg/mL, the percent remaining ([1]; 27.00 hr) was 26.89% and the “concentration in supernatant fluid” value ([1]; 32.00 hr) was 57.30 mg/mL. The percent remaining ([1]; 32.00 hr) was 25.85%, the “concentration in supernatant fluid” value ([1]; 37.50 hr) was 58.48 mg/mL and the percent remaining ([1]; 37.50 hr) was 27.54%. For the same compound, the “concentration in supernatant fluid” value ([1]; 47.00 hr) was 57.93 mg/mL, the percent remaining ([1]; 47.00 hr) was 25.58% and the “concentration in supernatant fluid” value ([1]; 52.00 hr) was 58.74 mg/mL. For the same compound, the percent remaining ([1]; 52.00 hr) was 27.28%, the “concentration in supernatant fluid” value ([1]; 57.00 hr) was 65.56 mg/mL and the percent remaining ([1]; 57.00 hr) was 32.42%. For the same compound, the “concentration in supernatant fluid” value ([1]; 71.00 hr) was 57.17 mg/mL, the percent remaining ([1]; 71.00 hr) was 25.52% and the “concentration in supernatant fluid” value ([1]; 77.00 hr) was 57.85 mg/mL. For the same compound, the percent remaining ([1]; 77.00 hr) was 25.86%, the “concentration in supernatant fluid” value ([1]; 81.00 hr) was 57.41 mg/mL and the percent remaining ([1]; 81.00 hr) was 25.54%. The “concentration in supernatant fluid” value ([1]; 99.75 hr) was 59.36 mg/mL, the percent remaining ([1]; 99.75 hr) was 26.14% and the “stability of the isomer” value [2] was “stable”. The “concentration in supernatant fluid” value ([2]; 0.0000 hr) was 55.000 mg/mL, the “concentration in supernatant fluid” value ([2]; 2.5000 hr) was 54.310 mg/mL and the percent remaining ([2]; 2.5000 hr) was 98.745%. The “concentration in supernatant fluid” value ([2]; 4.0000 hr) was 54.440 mg/mL, the percent remaining ([2]; 4.0000 hr) was 98.982% and the “concentration in supernatant fluid” value ([2]; 6.0000 hr) was 54.470 mg/mL. The percent remaining ([2]; 6.0000 hr) was 99.036%, the “concentration in supernatant fluid” value ([2]; 8.0000 hr) was 54.760 mg/mL and the percent remaining ([2]; 8.0000 hr) was 99.564%. The “concentration in supernatant fluid” value ([2]; 10.000 hr) was 55.840 mg/mL, the percent remaining ([2]; 10.000 hr) was 101.53% and the “concentration in supernatant fluid” value ([2]; 12.000 hr) was 56.760 mg/mL. The percent remaining ([2]; 12.000 hr) was 103.20%, the “concentration in supernatant fluid” value ([2]; 20.000 hr) was 55.460 mg/mL and the percent remaining ([2]; 20.000 hr) was 100.84%. The “concentration in supernatant fluid” value ([2]; 24.000 hr) was 55.390 mg/mL, the percent remaining ([2]; 24.000 hr) was 100.71% and the “concentration in supernatant fluid” value ([2]; 29.000 hr) was 53.990 mg/mL. The percent remaining ([2]; 29.000 hr) was 98.164%, the “concentration in supernatant fluid” value ([2]; 34.000 hr) was 53.440 mg/mL and the percent remaining ([2]; 34.000 hr) was 97.164%. For the same compound, the “concentration in supernatant fluid” value ([2]; 44.000 hr) was 52.960 mg/mL, the percent remaining ([2]; 44.000 hr) was 96.291% and the “concentration in supernatant fluid” value ([2]; 48.000 hr) was 52.940 mg/mL. The percent remaining ([2]; 48.000 hr) was 96.255%, the “concentration in supernatant fluid” value ([2]; 68.000 hr) was 49.940 mg/mL and the percent remaining ([2]; 68.000 hr) was 90.800%. For the same compound, the “concentration in supernatant fluid” value ([2]; 92.000 hr) was 50.670 mg/mL, the percent remaining ([2]; 92.000 hr) was 92.127% and the “concentration in supernatant fluid” value ([3]; 0.0000 hr) was 56.730 mg/mL. For the same compound, the “concentration in supernatant fluid” value ([3]; 2.0000 hr) was 52.420 mg/mL, the “concentration in supernatant fluid” value ([3]; 4.5000 hr) was 51.340 mg/mL and the “concentration in supernatant fluid” value ([3]; 7.0000 hr) was 50.470 mg/mL. For the same compound, the “concentration in supernatant fluid” value ([4]; 0 hr) was 29.890 mg/mL, the “concentration in supernatant fluid” value ([4]; 3.5 hr) was 29.850 mg/mL and the percent remaining ([4]; 3.5 hr) was 99.866%. The “concentration in supernatant fluid” value ([4]; 8.5 hr) was 29.900 mg/mL, the percent remaining ([4]; 8.5 hr) was 100.03% and the “concentration in supernatant fluid” value ([4]; 24 hr) was 29.740 mg/mL. For the same compound, the percent remaining ([4]; 24 hr) was 99.498%, the “concentration in supernatant fluid” value ([4]; 55 hr) was 30.120 mg/mL and the percent remaining ([4]; 55 hr) was 100.77%.
